Entries after “also recorded” stand apart in the source; their conditions may differ.
Assays:
[1] = system: 68 GPCRs, ion channels and transporters; assay: Lead Profiling screen at Ricerca, radioligand binding assays
[2] = Intrinsic clearance in human liver microsomes; assay type: in vitro ADME
NKCC1 [3] = target: T1, NKCC1 (Homo sapiens, UniProt P55011); assay: 86Rb uptake assay, NKCC1 function; assay type: cell-based; conditions: concentrations up to 100 µM
T1 sequence (P55011 1-1212): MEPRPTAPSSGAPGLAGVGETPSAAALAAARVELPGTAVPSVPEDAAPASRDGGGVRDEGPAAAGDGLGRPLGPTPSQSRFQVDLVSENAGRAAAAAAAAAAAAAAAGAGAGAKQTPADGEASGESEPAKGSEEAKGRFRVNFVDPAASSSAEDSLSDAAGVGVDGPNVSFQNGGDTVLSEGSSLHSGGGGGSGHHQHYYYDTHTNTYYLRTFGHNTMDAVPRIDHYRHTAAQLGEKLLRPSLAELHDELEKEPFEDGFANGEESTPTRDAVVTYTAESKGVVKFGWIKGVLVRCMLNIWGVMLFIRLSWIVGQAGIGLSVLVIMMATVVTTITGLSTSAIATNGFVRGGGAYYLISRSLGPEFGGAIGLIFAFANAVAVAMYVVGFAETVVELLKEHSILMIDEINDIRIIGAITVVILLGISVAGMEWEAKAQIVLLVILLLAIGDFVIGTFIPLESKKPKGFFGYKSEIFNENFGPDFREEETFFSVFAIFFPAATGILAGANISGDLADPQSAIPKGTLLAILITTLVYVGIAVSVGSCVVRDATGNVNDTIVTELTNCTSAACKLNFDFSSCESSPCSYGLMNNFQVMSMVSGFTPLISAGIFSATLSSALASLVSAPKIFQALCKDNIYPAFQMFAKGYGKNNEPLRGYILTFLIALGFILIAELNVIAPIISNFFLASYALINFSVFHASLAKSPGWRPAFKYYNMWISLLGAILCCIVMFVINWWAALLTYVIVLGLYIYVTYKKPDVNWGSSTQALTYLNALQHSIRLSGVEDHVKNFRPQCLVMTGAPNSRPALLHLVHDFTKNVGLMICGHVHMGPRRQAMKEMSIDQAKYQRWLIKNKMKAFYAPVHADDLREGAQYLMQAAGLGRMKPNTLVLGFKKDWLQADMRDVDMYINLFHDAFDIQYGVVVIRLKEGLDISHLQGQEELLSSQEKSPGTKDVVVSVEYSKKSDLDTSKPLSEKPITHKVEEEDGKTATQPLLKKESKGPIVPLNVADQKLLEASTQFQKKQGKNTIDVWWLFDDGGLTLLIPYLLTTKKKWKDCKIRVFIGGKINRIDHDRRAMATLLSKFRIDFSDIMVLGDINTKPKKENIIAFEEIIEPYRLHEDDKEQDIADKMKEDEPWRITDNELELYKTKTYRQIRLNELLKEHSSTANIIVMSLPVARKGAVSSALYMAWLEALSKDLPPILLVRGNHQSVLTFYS

NKCC1 [4] = target: T1, NKCC1; conditions: KCC2 versus NKCC1; cited from earlier work
KCC2 [5] = target: T2, KCC2 (Homo sapiens, UniProt Q9H2X9); conditions: intrathecal injection; cited from earlier work
T2 sequence (Q9H2X9 1-1139): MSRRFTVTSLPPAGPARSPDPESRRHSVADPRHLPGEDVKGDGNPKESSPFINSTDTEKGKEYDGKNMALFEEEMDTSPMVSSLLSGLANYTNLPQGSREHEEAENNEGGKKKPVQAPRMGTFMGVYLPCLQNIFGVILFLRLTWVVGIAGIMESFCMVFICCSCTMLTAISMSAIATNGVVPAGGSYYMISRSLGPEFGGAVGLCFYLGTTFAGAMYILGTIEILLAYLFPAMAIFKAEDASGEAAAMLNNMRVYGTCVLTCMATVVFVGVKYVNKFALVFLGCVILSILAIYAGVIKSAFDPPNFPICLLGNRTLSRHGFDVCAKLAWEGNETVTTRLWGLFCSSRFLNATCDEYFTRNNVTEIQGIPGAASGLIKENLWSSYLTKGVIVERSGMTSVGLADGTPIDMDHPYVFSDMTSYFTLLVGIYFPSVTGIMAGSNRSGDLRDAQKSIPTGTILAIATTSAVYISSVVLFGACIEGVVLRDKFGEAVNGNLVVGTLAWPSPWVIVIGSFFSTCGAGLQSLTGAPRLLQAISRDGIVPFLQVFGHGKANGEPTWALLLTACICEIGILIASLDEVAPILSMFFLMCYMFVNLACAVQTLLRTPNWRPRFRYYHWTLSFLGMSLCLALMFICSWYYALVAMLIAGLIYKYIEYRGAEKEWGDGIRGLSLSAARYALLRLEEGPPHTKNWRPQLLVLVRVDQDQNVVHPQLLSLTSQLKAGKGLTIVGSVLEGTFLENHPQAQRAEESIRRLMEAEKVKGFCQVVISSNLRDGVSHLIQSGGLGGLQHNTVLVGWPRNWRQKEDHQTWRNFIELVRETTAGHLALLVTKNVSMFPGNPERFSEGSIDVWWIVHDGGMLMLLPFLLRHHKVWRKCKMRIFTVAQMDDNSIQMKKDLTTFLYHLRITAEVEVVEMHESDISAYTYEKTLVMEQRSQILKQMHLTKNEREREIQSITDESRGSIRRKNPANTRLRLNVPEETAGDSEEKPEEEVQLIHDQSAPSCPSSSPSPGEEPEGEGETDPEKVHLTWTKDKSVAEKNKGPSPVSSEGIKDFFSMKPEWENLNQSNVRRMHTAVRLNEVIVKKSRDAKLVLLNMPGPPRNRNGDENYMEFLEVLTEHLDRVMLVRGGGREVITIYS

[6] = Intrinsic clearance in rat liver microsomes; assay type: in vitro ADME
KCC2 [7] = target: T2, KCC2; assay: 86Rb uptake assay in KCC2-overexpressing HEK293 cells; assay type: cell-based; conditions: first generation libraries, 2-pyridyl-based analogs

| Structure (SMILES) | KCC2 antagonist activity (in words) (KCC2 [7]) | inhibition of NKCC1 function (in words) (NKCC1 [3]) | selectivity versus NKCC1 (NKCC1 [4]) | other results |
| --- | --- | --- | --- | --- |
| Cc1csc(N(C(=O)CSc2ccc(-c3ccccc3)nn2)C2CC2)n1 [11k] | – | weak, partial inhibition; also recorded: weak partial inhibition | – | inhibition in ancillary pharmacology panel ([1]; 10 µM, 68 targets): ≤ 50%; activity in ancillary pharmacology panel (in words) ([1]; panel of 68 GPCRs, ion channels and transporters): no activity; Intrinsic clearance (in words) [2]: rapidly cleared in vitro |
| Cc1csc(NC(=O)CSc2ccc(-c3ccccc3)nn2)n1 [compound 1] | – | – | > 100 fold | – |
| Cc1csc(N(C)C(=O)CSc2ccc(-c3ccccc3)nn2)n1 [compound 2] | – | weak, partial inhibition; also recorded: weak partial inhibition | > 100 fold | CLint scaled [2]: 229 mL/min/kg; block of KCC2 in spinal cord (in words) (KCC2 [5]): used successfully to block KCC2 in spinal cord; CLint scaled [6]: 294 mL/min/kg |

Second part, led by results:

| KCC2 antagonist activity (in words) (KCC2 [7]) | Structure (SMILES) | inhibition of NKCC1 function (in words) (NKCC1 [3]) | selectivity versus NKCC1 (NKCC1 [4]) | other results |
| --- | --- | --- | --- | --- |
| weak | Cc1csc(NC(=O)CSc2ccc(-c3ccccc3)cn2)n1 [compound 9] | – | – | – |
| weak | Cc1csc(N(C)C(=O)CSc2ccc(-c3ccccc3)cn2)n1 [compound 10] | – | – | – |

Reference: publication PMC3389279 (Bioorganic & medicinal chemistry letters, 2012)
